Measurements reported in US20230010258A1, “COMPOSITION FOR PREVENTING OR INHIBITING AXONAL DEGENERATION” (CHECKMATE THERAPEUTICS INC., priority 2019, published 2023).
Counter-ions that a name gives are not always drawn.

Key:
optic nerve axons = test: Tadpole optic nerve axotomy model, delay in Wallerian degeneration (Experimental Example 3); assay type: in vivo, Xenopus tropicalis; settings: optic nerve axotomized at stage 41, 48 hours after treatment
Description: In order to verify the axon protective effect of the compound according to the present invention in the tadpole optic nerve axotomy model, an experiment was conducted according to the design shown in FIG. 13. Specifically, an in vitro fertilized Xenopus tropicalis (African frog) embryo (Nasco, Fort Atkinson, Wis. 53538, USA) is cultured to stage 27, and then a plasmid DNA expressing Enhanced Green Fluorescence Protein (EGFP) is delivered into the retinal progenitor cells of one eye by an electroporation technique. After culturing to stage 41, the axons of the retinal ganglion cells expressing the green fluorescent protein reach the optic tectum of the contralateral brain hemisphere, and this axon bundle is referred to as the optic nerve. When the optic nerve is axotomized at stage 41, Wallerian degeneration occurs in which axons distal from the cell body degenerate by fragmentation over about 72 hours. […] Wallerian degeneration of the Xenopus optic nerve occur in a stereotypical pattern at 24 hours, 48 hours and 72 hours after axotomy, and the degree of delay in Wallerian degeneration was quantified as percentage by comparing the degree of Wallerian degeneration in the drug-treated group with this pattern.

[1] = test system: retinal ganglion cell axons; test: Tadpole optic nerve axotomy model, axon survival score (Experimental Example 4); assay type: in vivo, Xenopus tropicalis; settings: axotomy at stage 43, evaluated 48 hours after axotomy, control DMSO
Description: In order to verify the axon protective effect of the compound according to the present invention in the tadpole optic nerve axotomy model, an experiment was conducted in the same manner as in Experimental Example 3. Specifically, GFP-expressing DNA was delivered into one retina of a Xenopus tropicalis tadpole at stage 27 (before retinal development) by electroporation. At stage 43 (the time when the connection between the retina and the visual center of the brain is finished), axons of the epectroporated retina were axotomized, and the tissue was fixed at 24-hour intervals, followed by extraction of the brain. Next, the ventral midline of the brain was excised and unfolded, and then the GFP signal in the contra-lateral brain hemisphere was imaged with a confocal microscope (LSM700, Carl Zeiss, 20×, z-step 3 μm). Thereby, it was possible to observe retinal ganglion cell axons located along the optic tract extending from the optic chiasm to the optic tectum. […] Axonal degeneration could be quantified because the continuous GFP signal disappeared along the optic tract over time after axotomy. […] The degree of inhibition of axonal degeneration by the drug was evaluated 48 hours after axotomy. […] The percentage of healthy axons in the drug group relative to the control group taken as 100% was calculated and used as the axon survival score (0 to 100%).

axonal degeneration = settings: cited from earlier work
[2] = test system: phosphorylation of JNK protein, a representative sub-regulatory marker of SARM1; settings: MKN1 cells, Western blot, Hsp90 as housekeeping protein
Description: Accordingly, in order to evaluate the axonal degeneration inhibitory effects of the compounds according to the present invention, the abilities of these compounds to inhibit SARM1 enzyme were analyzed. Specifically, whether phosphorylation of JNK protein, a representative sub-regulatory marker of SARM1, decreased, was evaluated by Western blot assay. A method for preparing the protein used in the Western blot assay is as follows. […] The entire cell lysate was fractionated using a centrifuge, and then only the solution containing the protein was extracted. The extracted protein was quantified by the Bradford method. The protein of the same concentration obtained through quantification was separated by SDS-polyacrylamide gel electrophoresis, and then transferred to a PVDF membrane. […] For visualization, an enhanced chemiluminescence system was used. Western blot assay was performed using JNK protein, a representative marker whose phosphorylation is regulated by SARM1, and the housekeeping protein Hsp90 was used for quantitative comparison of expression.

Nc1ccc(/C=C/C(=O)NCc2cc3cc(-c4ccc(C(=O)N5CCC(F)(F)CC5)cc4)cc(-c4ccc(F)cc4)c3o2)cn1 [KPT9274]
axon protective effect (degree of delay in Wallerian degeneration) (optic nerve axons): did not exhibit a significant axon protective effect

CS(=O)(=O)c1ccc2oc(-c3ccc(CNC(=O)c4cccnc4)cc3)nc2c1 [A4510H, N-(4-(5-(methylsulfonyl)benzo[d]oxazol-2-yl)benzyl)nicotinamide hydrochloride]
axon protective effect (axon survival score) [1]: exhibited an excellent axon protective effect

CC(C)(O)CS(=O)(=O)Nc1ccc2c(c1)CCN(C(=O)COc1cccnc1)C2 [LSN 3154567]
axon protective effect (degree of delay in Wallerian degeneration) (optic nerve axons): did not exhibit a significant axon protective effect

O=C(/C=C/c1cccnc1)NCCCCC1CCN(C(=O)c2ccccc2)CC1 [FK866]
axonal degeneration (axonal degeneration): effect of partially inhibiting axonal degeneration

O=C(NCc1ccc(-c2nc3ccc(Cl)cc3o2)cc1)c1cccnc1 [A4266, N-(4-(6-chlorobenzo[d]oxazol-2-yl)benzyl)nicotinamide]
JNK phosphorylation [2]: had the effect of inhibiting JNK phosphorylation
